Experimental findings from patent publication US20230077362A1 (CORTEVA AGRISCIENCE LLC, priority 2019, published 2023) are described below.

In test [1] the test system is Beet Armyworm (Spodoptera exigua) ("BAW"), second instar larvae. The test can be described thus: Bioassay on beet armyworm (BAW), 128-well diet tray assay. The class given is in vivo. The conditions noted are these: for pest or weed control at 50 µg/cm2: Spodoptera exigua, read-out: BAW rating; for BAW rating: Table ABC, species BAW, C = not tested, D = no activity noticed. An outline of the steps: (§1)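 Sealed trays, 25° C., 14:10 light:dark, 5–7 d. Per-well % mortality recorded, mean of eight wells reported.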

For test [2], the system named is Cabbage Looper (Trichoplusia ni) ("CL"), second instar larvae. Nature of the test: Bioassay on cabbage looper (CL), 128-well diet tray assay. The test is classed as in vivo. The following applies: for pest or weed control at 50 µg/cm2: Trichoplusia ni, read-out: CL rating; for CL rating: Table ABC, species CL, C = not tested, D = no activity noticed. The procedure, abridged:
as §1

On to `N#Cc1ccc(OCCC(F)(F)F)c(N2C(=O)CS/C2=N\C(=O)Nc2ccc(-n3cnc(-c4ccc(OC(F)(F)F)cc4)n3)cc2)c1` [Compound J406, (Z)-1-(3-(5-Cyano-2-(3,3,3-trifluoropropoxy)phenyl)-4-oxothiazolidin-2-ylidene)-3-(4-(3-(4-(trifluoromethoxy)phenyl)-1H-1,2,4-triazol-1-yl)phenyl)urea], for which the pest or weed control at 50 µg/cm2 in test [1] and in test [2] was 50 to 100% in each case.
For the compound `CC(C)c1ccc(C#N)cc1N1C(=O)CS/C1=N\C(=O)Nc1ccc(-n2cnc(-c3ccc(OC(F)(F)F)cc3)n2)cc1` [Compound J407, (Z)-1-(3-(5-Cyano-2-isopropylphenyl)-4-oxothiazolidin-2-ylidene)-3-(4-(3-(4-(trifluoromethoxy)phenyl)-1H-1,2,4-triazol-1-yl)phenyl)urea], the pest or weed control at 50 µg/cm2 in test [1] and in test [2] was 50 to 100% each time.
Consider `CC(C)c1ccc(N(C)C)cc1N1C(=O)CS/C1=N\C(=O)Nc1ccc(-n2cnc(-c3ccc(OC(F)(F)F)cc3)n2)cc1` [Compound J408, (Z)-1-(3-(5-(Dimethylamino)-2-isopropylphenyl)-4-oxothiazolidin-2-ylidene)-3-(4-(3-(4-(trifluoromethoxy)phenyl)-1H-1,2,4-triazol-1-yl)phenyl)urea], for which the pest or weed control at 50 µg/cm2 in test [1] and in test [2] was 50 to 100% throughout.
For `CCCc1ccc(N(C)C)cc1N1C(=O)CS/C1=N\C(=O)Nc1ccc(-n2cnc(-c3ccc(OC(F)(F)F)cc3)n2)cc1` [Compound J409, (Z)-1-(3-(5-(Dimethylamino)-2-propylphenyl)-4-oxothiazolidin-2-ylidene)-3-(4-(3-(4-(trifluoromethoxy)phenyl)-1H-1,2,4-triazol-1-yl)phenyl)urea], the pest or weed control at 50 µg/cm2 in test [1] and in test [2] was 50 to 100% in each case.
As to `CC(C)c1cc(F)c(N(C)C)cc1N1C(=O)CS/C1=N\C(=O)Nc1ccc(-n2cnc(-c3ccc(OC(F)(F)F)cc3)n2)cc1` [Compound J410, (Z)-1-(3-(5-(Dimethylamino)-4-fluoro-2-isopropylphenyl)-4-oxothiazolidin-2-ylidene)-3-(4-(3-(4-(trifluoromethoxy)phenyl)-1H-1,2,4-triazol-1-yl)phenyl)urea], the pest or weed control at 50 µg/cm2 in test [1] and in test [2] was 50 to 100% in each case.
Regarding `CC(C)c1ccc(C#N)cc1N1C(=O)CS/C1=N\C(=O)Nc1ccc(-c2ncn(-c3ccc(S(=O)(=O)C(F)(F)F)cc3)n2)cc1C#N` [Compound J413, (Z)-1-(3-(5-Cyano-2-isopropylphenyl)-4-oxothiazolidin-2-ylidene)-3-(2-cyano-4-(1-(4-((trifluoromethyl)sulfonyl)phenyl)-1H-1,2,4-triazol-3-yl)phenyl)urea], the pest or weed control at 50 µg/cm2 in test [1] and in test [2] was 50 to 100% throughout.
Consider `CC(C)c1ccc(N(C)C)cc1N1C(=O)CS/C1=N\C(=O)Nc1ccc(-c2ncn(-c3ccc(S(=O)(=O)C(F)(F)F)cc3)n2)cc1C#N` [Compound J414, (Z)-1-(2-Cyano-4-(1-(4-((trifluoromethyl)sulfonyl)phenyl)-1H-1,2,4-triazol-3-yl)phenyl)-3-(3-(5-(dimethylamino)-2-isopropylphenyl)-4-oxothiazolidin-2-ylidene)urea], for which the pest or weed control at 50 µg/cm2 in test [1] and in test [2] was 50 to 100% in each case.
As to `Cc1ccc(COCC(F)F)c(N2C(=O)CS/C2=N\C(=O)Nc2ccc(-c3ncn(-c4ccc(OC(F)(F)F)cc4)n3)cc2C)c1` [Compound J420], the BAW rating result in test [1] is reported as “A (50-100)”. In addition, the CL rating result in test [2] is on record as “A (50-100)”.
For the compound `CCC(OC)c1ccc(C)cc1N1C(=O)CS/C1=N\C(=O)Nc1ccc(-c2ncn(-c3ccc(OC(F)(F)F)cc3)n2)cc1F` (centres unmarked) [Compound J421], the pest or weed control at 50 µg/cm2 in test [1] and in test [2] was 50 to 100% in each case.
As to `Cc1ccc(COCC(F)(F)F)c(N2C(=O)CS/C2=N\C(=O)Nc2ccc(-c3ncn(-c4ccc(S(F)(F)(F)(F)F)cc4)n3)cc2F)c1` [Compound J422], in test [1], the BAW rating result is “A (50-100)”. The CL rating entry in test [2] was “A (50-100)”.
With `COC(C)c1ccc(C)cc1N1C(=O)CS/C1=N\C(=O)Nc1ccc(-c2ncn(-c3ccc(S(F)(F)(F)(F)F)cc3)n2)cc1F` (centres unmarked) [Compound J423], in test [1], the BAW rating entry is recorded as “A (50-100)”. In addition, the CL rating entry in test [2] was “A (50-100)”.
On to `Cc1ccc(COCC(F)(F)F)c(N2C(=O)CS/C2=N\C(=O)Nc2ccc(-c3ncn(-c4ccc(CC#N)cc4)n3)cc2F)c1` [Compound J425, (Z)-1-(4-(1-(4-(Cyanomethyl)phenyl)-1H-1,2,4-triazol-3-yl)-2-fluorophenyl)-3-(3-(5-methyl-2-((2,2,2-trifluoroethoxy)methyl)phenyl)-4-oxothiazolidin-2-ylidene)urea], for which the pest or weed control at 50 µg/cm2 in test [1] and in test [2] was 50 to 100% throughout.
Turning to `COC(C)c1ccc(C)cc1N1C(=O)CS/C1=N\C(=O)Nc1ccc(-c2noc(-c3ccc(OC(F)(F)F)cc3)n2)cc1F` (centres unmarked) [Compound J426, (Z)-1-(2-Fluoro-4-(5-(4-(trifluoromethoxy)phenyl)-1,2,4-oxadiazol-3-yl)phenyl)-3-(3-(2-(1-methoxyethyl)-5-methylphenyl)-4-oxothiazolidin-2-ylidene)urea], the pest or weed control at 50 µg/cm2 in test [1] and in test [2] was 50 to 100% throughout.
`Cc1ccc(COCC(F)(F)F)c(N2C(=O)CS/C2=N\C(=O)Nc2ccc(-c3nc(-c4ccc(OC(F)(F)F)cc4)no3)cc2F)c1` [Compound J427, (Z)-1-(2-Fluoro-4-(3-(4-(trifluoromethoxy)phenyl)-1,2,4-oxadiazol-5-yl)phenyl)-3-(3-(5-methyl-2-((2,2,2-trifluoroethoxy)methyl)phenyl)-4-oxothiazolidin-2-ylidene)urea]: the pest or weed control at 50 µg/cm2 in test [1] and in test [2] was 50 to 100% in each case.
Regarding `COC(c1ccc(C)cc1N1C(=O)CS/C1=N\C(=O)Nc1ccc(-c2nc(-c3ccc(OC(F)(F)F)cc3)no2)cc1F)C(F)(F)F` (centres unmarked) [Compound J428, (Z)-1-(2-Fluoro-4-(3-(4-(trifluoromethoxy)phenyl)-1,2,4-oxadiazol-5-yl)phenyl)-3-(3-(5-methyl-2-(2,2,2-trifluoro-1-methoxyethyl)phenyl)-4-oxothiazolidin-2-ylidene)urea], the pest or weed control at 50 µg/cm2 in test [1] and in test [2] was 50 to 100% throughout.
Regarding `COC(C)c1ccc(C)cc1N1C(=O)CS/C1=N\C(=O)Nc1ccc(-c2nnc(-c3ccc(OC(F)(F)F)cc3)o2)cc1F` (centres unmarked) [Compound J429, (Z)-1-(2-Fluoro-4-(5-(4-(trifluoromethoxy)phenyl)-1,3,4-oxadiazol-2-yl)phenyl)-3-(3-(2-(1-methoxyethyl)-5-methylphenyl)-4-oxothiazolidin-2-ylidene)urea], the pest or weed control at 50 µg/cm2 in test [1] and in test [2] was 50 to 100% each time.
As for `Cc1ccc(COCC(F)(F)F)c(N2C(=O)CS/C2=N\C(=O)Nc2ccc(-c3nnc(-c4ccc(OC(F)(F)F)cc4)o3)cc2F)c1` [Compound J430, (Z)-1-(2-Fluoro-4-(5-(4-(trifluoromethoxy)phenyl)-1,3,4-oxadiazol-2-yl)phenyl)-3-(3-(5-methyl-2-((2,2,2-trifluoroethoxy)methyl)phenyl)-4-oxothiazolidin-2-ylidene)urea], the pest or weed control at 50 µg/cm2 in test [1] and in test [2] was 50 to 100% in each case.
Turning to `CC(C)c1ccc(N(C)C)cc1N1C(=O)CS/C1=N\C(=O)Nc1ccc(-c2nnc(-c3ccc(OC(F)(F)F)cc3)o2)cc1F` [Compound J431, (Z)-1-(3-(5-(Dimethylamino)-2-isopropylphenyl)-4-oxothiazolidin-2-ylidene)-3-(2-fluoro-4-(5-(4-(trifluoromethoxy)phenyl)-1,3,4-oxadiazol-2-yl)phenyl)urea], the pest or weed control at 50 µg/cm2 in test [1] and in test [2] was 50 to 100% each time.
Turning to `CC(C)c1cc(F)c(N(C)C)cc1N1C(=O)CS/C1=N\C(=O)Nc1ccc(-c2nnc(-c3ccc(OC(F)(F)F)cc3)o2)cc1F` [Compound J432, (Z)-1-(3-(5-(Dimethylamino)-4-fluoro-2-isopropylphenyl)-4-oxothiazolidin-2-ylidene)-3-(2-fluoro-4-(5-(4-(trifluoromethoxy)phenyl)-1,3,4-oxadiazol-2-yl)phenyl)urea], the pest or weed control at 50 µg/cm2 in test [1] and in test [2] was 50 to 100% in each case.
Take `COC(c1ccc(C)cc1N1C(=O)CS/C1=N\C(=O)Nc1ccc(-c2nnc(-c3ccc(OC(F)(F)F)cc3)o2)cc1F)C(F)(F)F` (centres unmarked) [Compound J433, (Z)-1-(2-Fluoro-4-(5-(4-(trifluoromethoxy)phenyl)-1,3,4-oxadiazol-2-yl)phenyl)-3-(3-(5-methyl-2-(2,2,2-trifluoro-1-methoxyethyl)phenyl)-4-oxothiazolidin-2-ylidene)urea]: the pest or weed control at 50 µg/cm2 in test [1] and in test [2] was 50 to 100% in each case.
Turning to `COC(C)c1ccc(C)cc1N1C(=O)CS/C1=N\C(=O)Nc1ccc(-c2nc(-c3ccc(OC(F)(F)F)cc3)no2)cc1F` (centres unmarked) [Compound J434, (Z)-1-(2-Fluoro-4-(3-(4-(trifluoromethoxy)phenyl)-1,2,4-oxadiazol-5-yl)phenyl)-3-(3-(2-(1-methoxyethyl)-5-methylphenyl)-4-oxothiazolidin-2-ylidene)urea], the pest or weed control at 50 µg/cm2 in test [1] and in test [2] was 50 to 100% each time.
Take `CC(C)c1ccc(N(C)C)cc1N1C(=O)CS/C1=N\C(=O)Nc1ccc(-c2nc(-c3ccc(OC(F)(F)F)cc3)no2)cc1F` [Compound J435, (Z)-1-(3-(5-(dimethylamino)-2-isopropylphenyl)-4-oxothiazolidin-2-ylidene)-3-(2-fluoro-4-(3-(4-(trifluoromethoxy)phenyl)-1,2,4-oxadiazol-5-yl)phenyl)urea]: the pest or weed control at 50 µg/cm2 in test [1] and in test [2] was 50 to 100% in each case.
